Reference: patent US20070196856A1, “Methods of determining activity of ryanodine receptor modulators” (Allergan, Inc., priority 2006, published 2007)

Test system: ryanodine receptors

Compound: O=C1CN(/N=C/c2ccc(-c3ccc([N+](=O)[O-])cc3)o2)C(O)=N1 [dantrolene, Dantrolene]
- caffeine-induced Ca++ release (1.5 mM caffeine + 20 mM dantrolene, 5 minutes dantrolene pretreatment, retinal ganglion cells, FIG. 1 trace 2): blocked
- caffeine effect after washout (washout of dantrolene with 12.5 mM caffeine alone, FIG. 1 trace 3): recovered partially
